pIC50: −log10 of the molar value. Structures can show the parent of a compound that is named as a salt.
What was measured:
sodium channel = experiment: [14C]guanidine flux: veratrine-evoked uptake of [14C]guanidine into rat forebrain synaptosomes (primary sodium channel assay); assay type: biochemical; conditions: 30° for 2½ min
Protocol: The screening strategy is designed to select compounds with appropriate sodium channel blocking activity and low side effect liability. To this end all compounds are processed through the primary sodium channel assay (veratrine-evoked uptake of [^14C]guanidine into rat forebrain synaptosomes) and IC50 values computed from generated concentration-effect curves.
Experiments were performed using forebrain (whole brain less cerebellum/medulla) from Male Wistar rats weighing 175-250 g. All efforts were made to reduce the number of animals used and all experiments were carried out in accordance with the UK Animals (Scientific Procedures) Act, 1986 and the European Community Council Directive of 24 Nov. 1986 (86/609/EEC). Following killing of animals by stunning and decapitation, the forebrain (whole brain less cerebellum/medulla) was rapidly dissected and transferred to a weighed tube containing ice-cold 0.25M sucrose.
Synaptosomes (heavy and light mitochondrial fraction containing synaptosomes) were prepared by transferring the forebrain (of known wet weight) to a glass Potter vessel to which 9 volumes ice-cold 0.25M sucrose had been added and homogenising, using a teflon pestle, by 8 ‘up and down strokes’ of a Braun Potter S motor driven homogeniser set to 900 rpm. The resulting homogenate was centrifuged at 1036×g at 4° for 10 min and the supernatant collected. The remaining pellet was resuspended, as above, in fresh ice-cold 0.25M sucrose and the centrifugation step repeated. The supernatant fractions were pooled and centrifuged at 40,000×g (average) at 4° for 15 min and the resulting pellet resuspended in the appropriate assay buffer at a concentration of 20-25 mg wet weight per ml appropriate assay buffer.
Both assays were carried out using 14 ml polypropylene test tubes to which a range of concentrations of the compounds under test were added.
The [^14C] guanidinine flux assay was measured using the method of Pauwels P J et al (1986) but carried out@30° for 2½ min.
(§1) Data are presented as mean±sem of number of experiments indicated in brackets.

[1] = target: T1, DiHydroFolate Reductase (DHFR) (Rattus norvegicus, UniProt Q920D2); experiment: Inhibition of binding of [3H]methotrexate to rat liver homogenate supernatant; conditions: 125 μM; read-out: [3H]mtx binding (% inhibition @ 125 μM)
T1 construct: from tissue; host or cells: rat liver homogenate supernatant
T1 sequence (Q920D2 1-187): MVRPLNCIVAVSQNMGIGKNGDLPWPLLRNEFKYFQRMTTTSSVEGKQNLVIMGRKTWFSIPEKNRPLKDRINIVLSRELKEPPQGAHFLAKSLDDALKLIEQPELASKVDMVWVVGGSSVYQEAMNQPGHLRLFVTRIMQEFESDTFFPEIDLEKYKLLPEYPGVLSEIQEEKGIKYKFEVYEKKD
Protocol: All steps were carried out at 4° (or on ice). Freshly dissected rat liver was dissected into 0.25M ice-cold Sucrose and subsequently homogenised (U-turrax) in 50 mM pH 6.0 phosphate buffer (10 ml/g tissue) containing 15 mM Dithiothreitol. The resulting homogenate was centrifuged@47,500×g for 20 min and supernatant (filtered through cotton wool to remove fatty lumps) stored @ −80° before use (Rothenberg et al).
Inhibition of the binding of [^3H]methotrexate to rat liver homogenate supernatant fractions were carried out essentially as described by Arons et al, 1975.
as §1

SMILES | melting point | pIC50 (sodium channel) | inhibition at 125 µM [1] [%]
CCn1nc(-c2sc(Cl)c(Cl)c2Cl)c(N)nc1=N (as salt: methanesulfonate) [CEN-195, 5(3)-Amino-6-{2-(3,4,5-trichloro)thienyl}-2,3(2,5)-dihydro-3(5)-imino-2-ethyl-1,2,4-triazine methanesulfonate] | 202 to 204 °C |  | 
CCn1nc(-c2cccc(C(F)(F)F)c2Cl)c(N)nc1=N (as salt: methanesulphonate) [CEN-178, 5(3)-Amino-6-(2-chloro-3-trifluoromethyphenyl)-2,3(2,5)-dihydro-3(5)-imino-2-ethyl-1,2,4-triazine methanesulphonate] | 207 to 209 °C |  | 
CCn1nc(-c2cc(C(C)(C)C)cc(C(C)(C)C)c2)c(N)nc1=N (as salt: methanesulphonate) [CEN-189, 5(3)-Amino-6-(3,5 bis-tert-butylphenyl)-2,3(2,5)-dihydro-3(5)-imino-2-ethyl-1,2,4-triazine methanesulphonate] | 258 to 261 °C |  | 
Nc1nnc(-c2ccccc2OC(F)(F)F)c(N)n1 [CEN-56, 3,5-Diamino-6-(2-trifluoromethoxyphenyl)-1,2,4-triazine] | 148 to 150 °C |  | 
Nc1nnc(-c2cccs2)c(N)n1 [CEN-57, 3,5-Diamino-6-(2-thienyl)-1,2,4-triazine] | 271 to 272 °C (dec.) | < 2.70 | 44
Nc1nnc(-c2ccsc2)c(N)n1 [CEN-64, 3,5-Diamino-6-(3-thienyl)-1,2,4-triazine] | 199 to 201 °C | < 2.70 | 52
Nc1nnc(-c2ccccc2Br)c(N)n1 [CEN-68, 3,5-Diamino-6-(2-bromophenyl)-1,2,4-triazine] | 198 to 200 °C | 3.10 | 101
Nc1nnc(-c2cccc(Br)c2)c(N)n1 [CEN-69, 3,5-Diamino-6-(3-bromophenyl)-1,2,4-triazine] | 221 to 222 °C | 3.11 | 66
Nc1nnc(-c2cc(Cl)sc2Cl)c(N)n1 [CEN-71, 3,5-Diamino-6-[3-(2,5 dichlorothienyl)]-1,2,4-triazine] | 190 to 192 °C | 3.29 | 54
Nc1nnc(-c2cccc3ccccc23)c(N)n1 [CEN-72, 6-(1-Naphthyl)-1,2,4-triazine-3,5-diamine] | 194 to 196 °C | 3.88 | 101
Nc1nnc(-c2ccccc2-c2ccccc2)c(N)n1 [CEN-74, 3,5-Diamino-6-(2-biphenyl)-1,2,4-triazine] | 222 to 224 °C | 3.53 | 99
Nc1nnc(-c2ccc(-c3ccccc3)cc2)c(N)n1 [CEN-82, 3,5-Diamino-6-(4-biphenyl)-1,2,4-triazine] | 282 to 284 °C | < 3.00 | -8
Nc1cnc(-c2ccc3ccccc3c2)c(N)n1 [CEN-88, 2,6-Diamino-3-(2-naphthyl)pyrazine] | 163 to 165 °C | 3.72 | 82
Nc1nnc(-c2cccc3c2CCCC3)c(N)n1 [CEN-94] | 202 to 204 °C | 3.40 | -2
COc1cc(-c2nnc(N)nc2N)cc(OC)c1OC [CEN-95, 3,5-Diamino-6-(3,4,5 trimethoxyphenyl)-1,2,4-triazine] | 309 to 311 °C | < 3.00 | 6
Nc1nnc(-c2ccc3cc(Br)ccc3c2)c(N)n1 [CEN-96] | 260 to 262 °C | 3.96 | 105
Nc1nnc(-c2ccccc2Oc2ccccc2)c(N)n1 [CEN-97, 3,5-Diamino-6-(2-phenoxphenyl)-1,2,4-triazine] | 200 to 202 °C | 3.44 | 101
Nc1nnc(-c2ccc3c(c2)OCO3)c(N)n1 [CEN-103, 3,5-Diamino-6-(3,4-methylenedioxyphenyl)-1,2,4-triazine] | 217 to 218 °C | < 3.00 | 47

SMILES | melting point | pIC50 (sodium channel) | inhibition at 125 µM [1] [%]
Nc1nnc(-c2c(Cl)cccc2Cl)c(N)n1 [CEN-104, 3,5-Diamino-6-(2,6-dichlorophenyl)-1,2,4-triazine] | 160 to 162 °C | < 3.00 | 23
Cn1nc(-c2cccc(Oc3ccccc3)c2)c(N)nc1=N [CEN-106, 5(3)-Amino-6-(3-phenoxyphenyl)-2,3(2,5)-dihydro-3(5)-imino-2-methyl-1,2,4-triazine] | 160 to 161 °C | 4.57 | 43
Nc1nnc(-c2ccc(-c3ccccc3)o2)c(N)n1 [CEN-107, 3,5-Diamino-6-[2-(5-phenylfuryl)]-1,2,4-triazine] | 247 to 249 °C | 2.93 | 48
Nc1nnc(-c2cccc(OC(F)(F)C(F)F)c2)c(N)n1 [CEN-108, 3,5-Diamino-6-[3-(1,1,2,2-tetrafluoroethoxy)phenyl]-1,2,4-triazine] | 199 to 200 °C | 3.09 | 81
Nc1nnc(-c2ccc3c(c2)OCCO3)c(N)n1 [CEN-109, 3,5-Diamino-6-(3,4-ethylenedioxyphenyl)-1,2,4-triazine] | 220 to 222 °C | < 3.00 | 80
Nc1nnc(-c2cc3ccccc3s2)c(N)n1 [CEN-113, 3,5-Diamino-6-[2-(benzo[b]thiophenyl)]-1,2,4-triazine] | 344 to 345 °C | 2.70 | 65
Nc1nnc(-c2sc3ccccc3c2Cl)c(N)n1 [CEN-114, 3,5-Diamino-6-[2-(3-chlorobenzo[b]thiophenyl)]-1,2,4-triazine] | 318 to 320 °C | 3.76 | 46
COc1ccc(-c2nnc(N)nc2N)cc1OC [CEN-115, 3,5-Diamino-6-(3,4-dimethoxyphenyl)-1,2,4-triazine] | 288 to 290 °C | < 3.00 | 61
Nc1nnc(-c2c3ccccc3cc3ccccc23)c(N)n1 [CEN-118, 6-(9-Anthracenyl)-3,5-diamino-1,2,4-triazine] | 350 to 352 °C | 2.94 | -7
Nc1nnc(-c2cc(Br)c(Br)o2)c(N)n1 [CEN-121, 3,5-Diamino-6-[2-(4,5-dibromofuryl)]-1,2,4-triazine] | 272 to 275 °C | < 3.00 | 92
Nc1nnc(-c2cc(Br)c(Br)s2)c(N)n1 [CEN-122, 3,5-Diamino-6-[2-(4,5-dibromothienyl)]-1,2,4-triazine] | 318 to 320 °C | < 3.00 | 86
Nc1nnc(-c2cccc(OCc3ccccc3)c2)c(N)n1 [CEN-123, 3,5-Diamino-6-(3-Benzyloxyphenyl)-1,2,4-triazine] | 284 to 286 °C | 4.38 | 86
Nc1nnc(-c2ccc(Br)s2)c(N)n1 [CEN-124, 3,5-Diamino-6-[2-(5-bromothienyl)]-1,2,4-triazine] | 265 to 268 °C | 3.06 | 90
Nc1nnc(-c2sccc2Br)c(N)n1 [CEN-125, 3,5-Diamino-6-[2-(3-bromothienyl)]-1,2,4-triazine] | 215 to 217 °C | 2.12 | 6
Nc1nnc(-c2ccc(OCc3ccccc3)cc2)c(N)n1 [CEN-131, 3,5-Diamino-6-(4-Benzyloxyphenyl)-1,2,4-triazine] | 205 to 207 °C | 3.54 | 94
Nc1nnc(-c2ccccc2Cl)c(-c2ccccc2Cl)n1 [CEN-132, 3-Amino-5,6-bis(2-chlorophenyl)-1,2,4-triazine] | 240 to 242 °C | 4.16 | 4
Nc1nnc(-c2ccccc2OC(F)(F)C(F)F)c(N)n1 [CEN-137, 3,5-Diamino-6-[2-(1,1,2,2-tetrafluoroethoxy)phenyl]-1,2,4-triazine] | 158 to 160 °C | < 2.70 | 23

From patent publication US8691818B2, “Cyclic triazo and diazo sodium channel blockers” (University Of Greenwich, priority 2008, dated 2014)
